One test deals with Fibrinogen-D fragment. The test is described as follows: Isothermal titration calorimetry (VP-ITC) of Coa peptides with Fg-D fragment. Also on record: species or system human. As to conditions: one-binding site model, 10 μM Fg-D, read-out: dissociation constant (KD) to Fg-D. As for the experimental part:
Binding isotherms for the interaction of Fg-D with Coa peptide sCoa-RI (FIG. 14A), sCoa-R13 (FIG. 14B) and sCoa-RV (FIG. 14C) were generated by titrating the peptides (˜200 μM) into an ITC cell containing 10 μM Fg-D. The top panels show heat difference upon injection of coa peptides, and the lower panels show integrated heat of injections. The data were fitted to a one-binding site model (bottom panels), and binding affinities are expressed as dissociation constants (KD) or the reciprocal of the association constants determined by Microcal Origin software. N represents the binding ratio. To generate more quantitative binding data for the Coa peptide Fg interaction isothermal titration calorimetry and titrated the Coa peptides into a solution containing a fixed concentration of Fg-D fragments was used.
Isothermal titration calorimetry—The interaction between Coa peptides and the soluble, isolated Fibrinogen-D fragment was further characterized by isothermal titration calorimetry (ITC) using a VP-ITC microcalorimeter. The Fibrinogen-D fragment used in these studies was generated by digesting full length Fibrinogen with plasmin for 4 h and fractionating the digestion products by gel filtration chromatography. The ITC cell contained 10 μM Fibrinogen-D fragments and the syringe contained 150-200 μM Coa peptides in TBS (25 mM Tris, 3.0 mM KCl and 140 mM NaCl, pH 7.4). […]
For orientation: ITC needs no label: the signal is the heat of the interaction.

Another test deals with T1, rCoa binding to Fg (Homo sapiens, UniProt P02671+P02675+P02679).
T1 construct: full-length human Fibrinogen (diluted in PBS, Enzyme research); purchased Enzyme research; host or cells: Coa probe made in E. coli BL21
T1 sequence (P02671 20-629 limits assumed): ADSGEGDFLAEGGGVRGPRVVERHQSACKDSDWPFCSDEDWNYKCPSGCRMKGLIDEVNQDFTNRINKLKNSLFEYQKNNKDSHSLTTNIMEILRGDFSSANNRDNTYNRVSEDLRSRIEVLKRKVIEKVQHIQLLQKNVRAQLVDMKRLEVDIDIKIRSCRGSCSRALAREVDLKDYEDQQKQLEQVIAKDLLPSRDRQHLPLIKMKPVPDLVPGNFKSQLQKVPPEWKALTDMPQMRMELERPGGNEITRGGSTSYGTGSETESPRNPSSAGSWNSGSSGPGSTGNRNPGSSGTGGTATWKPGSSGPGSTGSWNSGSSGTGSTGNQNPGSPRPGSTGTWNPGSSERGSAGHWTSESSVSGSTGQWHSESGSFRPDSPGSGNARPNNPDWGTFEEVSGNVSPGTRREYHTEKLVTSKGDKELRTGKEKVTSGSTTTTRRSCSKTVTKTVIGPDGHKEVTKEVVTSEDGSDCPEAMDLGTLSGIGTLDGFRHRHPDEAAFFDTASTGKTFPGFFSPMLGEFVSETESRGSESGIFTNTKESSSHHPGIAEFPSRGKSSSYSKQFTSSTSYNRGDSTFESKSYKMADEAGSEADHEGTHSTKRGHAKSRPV
T1 sequence (P02675 31-491): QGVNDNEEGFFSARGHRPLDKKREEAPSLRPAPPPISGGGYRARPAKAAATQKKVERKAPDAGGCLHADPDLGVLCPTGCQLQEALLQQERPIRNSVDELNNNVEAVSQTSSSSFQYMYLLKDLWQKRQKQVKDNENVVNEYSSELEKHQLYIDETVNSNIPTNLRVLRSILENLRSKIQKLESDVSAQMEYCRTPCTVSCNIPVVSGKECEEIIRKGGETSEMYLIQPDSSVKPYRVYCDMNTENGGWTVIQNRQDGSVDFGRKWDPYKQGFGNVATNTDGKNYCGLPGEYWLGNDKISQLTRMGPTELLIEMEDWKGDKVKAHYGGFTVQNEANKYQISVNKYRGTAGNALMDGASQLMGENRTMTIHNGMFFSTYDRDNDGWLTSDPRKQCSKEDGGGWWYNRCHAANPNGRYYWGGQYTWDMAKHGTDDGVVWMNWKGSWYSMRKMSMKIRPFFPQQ
T1 sequence (P02679 27-453): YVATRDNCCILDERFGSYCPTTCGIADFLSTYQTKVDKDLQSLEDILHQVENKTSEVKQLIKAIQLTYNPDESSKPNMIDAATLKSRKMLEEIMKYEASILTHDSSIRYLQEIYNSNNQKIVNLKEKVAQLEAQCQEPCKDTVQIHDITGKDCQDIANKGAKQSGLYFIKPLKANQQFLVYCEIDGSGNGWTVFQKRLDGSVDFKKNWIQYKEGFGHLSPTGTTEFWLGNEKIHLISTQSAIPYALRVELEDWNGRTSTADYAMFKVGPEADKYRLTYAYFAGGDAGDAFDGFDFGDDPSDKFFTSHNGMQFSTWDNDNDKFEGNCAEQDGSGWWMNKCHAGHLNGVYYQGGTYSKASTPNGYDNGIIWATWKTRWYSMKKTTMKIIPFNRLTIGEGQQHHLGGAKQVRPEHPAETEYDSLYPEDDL
Nature of the test: Competition ELISA, peptide inhibition of recombinant Coa binding to Fg. As to conditions: increasing concentrations of peptide; 4 nM GST-tagged Coa proteins. The source says:
FIG. 9A illustrates a schematic presentation of recombinant Coa fragments generated in this study. Coa is depicted in its secreted form Coa (27-636) lacking the signal peptide (1-26). The N-terminus of Coa (Coa-N; Coa 27-310) constitutes D1D2 prothrombin binding domain. The C-terminus of Coa (Coa-C; Coa 311-636) includes the central region and the tandem-repeat region. The Coa-C further divides into two parts, the Coa-R is corresponding to the tandem-repeat region covering residue 506-636, and the Coa-F fragment covering residues 311-505. Recombinant protein Coa-R0 corresponds to the residues 474-506 residues. […] FIG. 9B illustrates an ELISA assays of GST-tagged Coa fragments binding to immobilized Fg. Open circle, Coa (Coa 27-636); open upright triangle, Coa-N(Coa 27-310); open inverted triangle, Coa-C(Coa 311-636); closed circle, Coa-R (Coa 506-636); closed diamond, Coa-F (Coa 311-505). […] FIG. 9D illustrates the effect of peptide Efb-O on inhibition of rCoa binding to Fg. Increasing concentration of Efb-O were incubated with 4 nM GST-tagged Coa proteins in Fg-coated microtiter wells. Control, BSA.
[…] All proteins were diluted in TBS containing 1% BSA and 0.05% TWEEN® 20 and the ELISA assays were carried out at room temperature.
A general note: ELISA stands for enzyme-linked immunosorbent assay.

“sCoa-RI: synthetic peptide, first 27 residues of repeat region, Coa 506-532 (ETNAYNVTTHANGQVSYGARPTYKKPS)”: the Kd on Fibrinogen-D fragment was determined as 0.088 µM. “sEfb-O: synthetic peptide mimicking the high affinity Fg-binding motif in Efb (Efb 68-98) (KYIKFKHDYNILEFNDGTFEYGARPQFN)”: the “inhibition of recombinant Coa binding to Fg” value with rCoa binding to Fg is “effectively inhibited recombinant Coa binding to Fg”.

As a reminder, the Kd is the concentration at which binding is half-saturated.
